Experimental data as given in patent US20080027031A1, “Retinoids and Related Compounds for the Treatment of Neuroinflammatory Conditions, Diseases and Disorders” (KineMed, Inc., priority 2006, published 2008).
Like-named read-outs stand apart in the source and are kept apart here.

Experiments:
[1] = test system: microglia; assay: Microglial proliferation in the EAE model of multiple sclerosis (2H2O labeling); type: in vivo, mouse; conditions: female C57BL/6 mice, MOG(35-55) immunization; isotretinoin 30 mg/kg/day i.p.; 7 days 2H2O labeling
Experimental: FIG. 3 depicts the inhibition of Microglial Proliferation in the experimental autoimmune encephalomyelitis (EAE) model of neuroinflammation. Female c57bl/6 mice were labeled with ^2H2O for 7 days and received either sham or EAE immunizations. EAE was induced by subcutaneous injection of 100 μg synthetic MOG(35-55) peptide emulsified in 0.1 ml complete Freund's adjuvant on day 0. Pertussis toxin (400 ng) was injected intravenously on days 0 and 2. Minocycline (45 mg/kg, i.p.) was dissolved in saline and injected twice a day for the first 3 days, and once a day for the rest of the study. Accutane (30 mg/kg, i.p.) was dissolved in DMSO and injected once a day for the duration of the study. Data represent mean±SD of 5 animals per group. * Indicates significant difference (p<0.0001) between sham and EAE groups treated with vehicle, # indicates significant difference (p<0.0001) between vehicle and drug treated EAE groups. […]
Analysis of cell turnover: GC/MS analysis was used to measure ^2H incorporation from ^2H2O into the deoxyribose moiety of purine deoxyribonucleotides during de novo DNA synthesis. Genomic DNA from microglia was isolated using a DNEasy tissue kit (Qiagen, Valencia, Calif.), and processed and analyzed by GC/MS. […]

[2] = test system: EAE mice; assay: Clinical scores for EAE symptoms in EAE induced by MOG peptide; type: in vivo, mouse
Experimental: Female C57BL/6 mice were immunized with MOG35-55 (EAE mice). All mice were labeled with 8% 2H2O for 1 week and received daily treatment with either vehicle or isotretinoin (10 mg/kg/day, ip). […] Data represent mean±SEM of 8 mice per group.
EAE was induced by subcutaneous injection of 100 μg synthetic MOG(35-55) peptide (QCB, Hopkinton, Mass.), emulsified in 0.1 ml complete Freund's adjuvant (CFA; incomplete Freund's adjuvant containing 4 mg/ml heat-killed M. tuberculosis H37Ra; both from Difco/Becton Dickinson), on day 0. Pertussis toxin (400 ng; List Biological) was injected intravenously on days 0 and 2. Sham-immunized animals were injected with CFA and PBS. Labeling with ^2H2O and treatment with isotretinoin (30 mg/kg/day) was initiated on the day of immunization, drug t.
Accordingly, the effect of isotretinoin was assessed on clinical symptoms of EAE during chronic treatment.

[3] = test system: microglia; conditions: for LPS-induced microglial proliferation: female C57BL/6 mice, LPS 1 mg/kg i.p. days 1, 3, 5, isotretinoin 40 mg/kg i.p. daily for 7 days, p<0.0001 vs LPS-treated animals
Experimental: Female c57bl/6 mice were labeled with ^2H2O for 7 days and injected with LPS (1 mg/kg, i.p.) on days 1, 3 and 5. Accutane (40 mg/kg, i.p.) was administered daily for the duration of the study. […] LPS (1 mg/kg) was given on days 1, 3, and 5 of treatment. Isotretinoin (40 mg/kg/day) and 8% ^2H2O label were given for 7 days commencing on Day 1.
Mice: All animal studies were carried out according to NIH guidelines for the care and use of laboratory animals and received prior approval by the KineMed internal animal care and use committee. 9-10 week old female C57/Bl6 mice (Taconic, Oxnard, Calif.) were housed in a climate controlled environment with a 12 hour light/dark cycle and were fed standard rodent chow and water ad libitum. For heavy water labeling, animals received a priming IP bolus of 35 ml/kg 0.9% NaCl in 99.9% ^2H2O and were maintained on 8% ^2H2O in drinking water until sacrifice.
To induce neuroinflammation, C57/Bl6 mice received 1 mg/kg E. coli LPS (L4391, Sigma Chemical, St Louis, Mo.; serotype 0111:B4; stock of 0.2 mgs/ml in PBS) IP on days 1, 3, and 5 of ^2H2O labeling and were sacrificed the morning of day 8. In order to minimize dilution of body water ^2H enrichment in animals due to the volume of injections, 5% ^2H2O solution was used as the vehicle for LPS. Isotretinoin (Sigma) was dissolved in DMSO and administered IP daily at 40 mg/kg, drug treatment was maintained throughout the labeling period.
Isolation and characterization of microglia: Anesthetized mice were transcardially perfused with ice-cold PBS (30 ml). Brains (without olfactory bulbs) were removed and kept in ice-cold PBS until processing. Tissue was passed once through a 1 mm mesh, and agitated in digestion buffer (12.5 ml of 150 mM NaCl, 5 mM KCl, 10 mM NaHCO3, 0.5 mM EDTA, 15 mM HEPES, 5 mM D-glucose, containing 0.5 mg/ml DNAse I [Roche] and 2.5 mg/ml trypsin [Sigma]) in a baffle flask for 25 minutes at 37° C. Trypsin was inactivated by the addition of 6.25 ml of media (1:1 Hams F10:DMEM, 10% FBS, 100,000 units/l penicillin G, 50 mg/l streptomycin sulfate, 2 mM L-glutamine). […]

CC1=C(/C=C/C(C)=C/C=C/C(C)=C\C(=O)O)C(C)(C)CCC1 [isotretinoin, 13-cis-retinoic acid]
microglial proliferation in the EAE model [1]: dramatically inhibited
delay of onset of clinical symptoms of EAE ([2]; MOG35-55 immunized mice, isotretinoin 10 mg/kg/day ip from the day before immunization, untreated onset 14 days PI): 1 week
severity of clinical symptoms (clinical score) of EAE ([2]; between day 18 and day 25 PI vs vehicle-treated EAE mice, p<0.05, isotretinoin 10 mg/kg/day ip): reduced the severity of clinical symptoms significantly
LPS-induced microglial proliferation [3]: dramatically inhibited
LPS-induced microglial proliferation ([3]; listed as isotrentinoin): Inhibits Microglial Proliferation
suppression of proliferation of brain microglial cells under conditions of microglial stimulation ([3]; overview statement, compared with clinically established inhibitors of neuroinflammation, including minocycline and glucocorticoids): as potent
